Data published in PubChem BioAssay (NCI).
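Briefly, cells in 96-well plates were exposed to five compound concentrations for 48 h, and endpoints were estimated by linear interpolation. TGI marks complete inhibition of growth.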

Legend:
Assay in all cases: inhibition of tumour cell growth, NCI panel, 48 h
[1] = tested on: MALME-3M melanoma
[2] = tested on: HCC-2998 colon
[3] = tested on: IGROV1 ovarian
[4] = tested on: SF-539 CNS
[5] = tested on: SN12C renal
[6] = tested on: M14 melanoma
[7] = tested on: UO-31 renal
[8] = tested on: HL-60(TB) leukemia
[9] = tested on: PC-3 prostate
[10] = tested on: DU-145 prostate
[11] = tested on: SR leukemia
[12] = tested on: SNB-75 CNS
[13] = tested on: T-47D breast
[14] = tested on: RPMI-8226 leukemia
[15] = tested on: SK-MEL-28 melanoma
[16] = tested on: OVCAR-8 ovarian
[17] = tested on: NCI-H23 lung
[18] = tested on: COLO 205 colon
[19] = tested on: RXF 393 renal
[20] = tested on: ACHN renal
[21] = tested on: OVCAR-3 ovarian
[22] = tested on: UACC-257 melanoma
[23] = tested on: MDA-MB-435
[24] = tested on: U251 CNS
[25] = tested on: EKVX NSCLC
[26] = tested on: SK-MEL-5 melanoma
[27] = tested on: NCI-H522 lung
[28] = tested on: CCRF-CEM leukemia
[29] = tested on: A549 NSCLC
[30] = tested on: BT-549 breast
[31] = tested on: SW-620 colon
[32] = tested on: LOX IMVI melanoma
[33] = tested on: HCT-116 colon
[34] = tested on: SF-268 CNS
[35] = tested on: SF-295 CNS
[36] = tested on: OVCAR-5 ovarian
[37] = tested on: MDA-MB-231 breast
[38] = tested on: 786-0 renal
[39] = tested on: KM12 colon
[40] = tested on: HT29 colon
[41] = tested on: NCI-H226 lung
[42] = tested on: CAKI-1 renal
[43] = tested on: MDA-N
[44] = tested on: MOLT-4 leukemia
[45] = tested on: K-562 leukemia
[46] = tested on: UACC-62 melanoma
[47] = tested on: SK-OV-3 ovarian
[48] = tested on: SNB-19 CNS
[49] = tested on: HCT-15 colon
[50] = tested on: MCF7 breast
[51] = tested on: NCI/ADR-RES ovarian
[52] = tested on: HOP-62 NSCLC
[53] = tested on: TK-10 renal
[54] = tested on: A498 renal
[55] = tested on: OVCAR-4 ovarian
[56] = tested on: SK-MEL-2 melanoma
[57] = tested on: HOP-92 NSCLC
[58] = tested on: NCI-H460 lung
[59] = tested on: HS 578T breast

SMILES: C=CCN(Cc1ccncc1)C(=O)C(O)(c1ccccc1)c1ccccc1
- TGI [1]: > 100 µM
- TGI [2]: > 100 µM
- TGI [3]: > 100 µM
- TGI [4]: > 100 µM
- TGI [5]: > 100 µM
- TGI [6]: > 100 µM
- TGI [7]: 56.5 µM
- TGI [8]: > 100 µM
- TGI [9]: > 100 µM
- TGI [10]: > 100 µM
- TGI [11]: > 100 µM
- TGI [12]: > 100 µM
- TGI [13]: > 100 µM
- TGI [14]: 78.6 µM
- TGI [15]: > 100 µM
- TGI [16]: > 100 µM
- TGI [17]: > 100 µM
- TGI [18]: > 100 µM
- TGI [19]: > 100 µM
- TGI [20]: > 100 µM
- TGI [21]: > 100 µM
- TGI [22]: > 100 µM
- TGI [23]: > 100 µM
- TGI [24]: > 100 µM
- TGI [25]: > 100 µM
- TGI [26]: > 100 µM
- TGI [27]: > 100 µM
- TGI [28]: > 100 µM
- TGI [29]: > 100 µM
- TGI [30]: > 100 µM
- TGI [31]: > 100 µM
- TGI [32]: > 100 µM
- TGI [33]: > 100 µM
- TGI [34]: > 100 µM
- TGI [35]: > 100 µM
- TGI [36]: > 100 µM
- TGI [37]: > 100 µM
- TGI [38]: > 100 µM
- TGI [39]: > 100 µM
- TGI [40]: > 100 µM
- TGI [41]: > 100 µM
- TGI [42]: > 100 µM
- TGI [43]: > 100 µM
- TGI [44]: > 100 µM
- TGI [45]: > 100 µM
- TGI [46]: > 100 µM
- TGI [47]: > 100 µM
- TGI [48]: > 100 µM
- TGI [49]: > 100 µM
- TGI [50]: > 100 µM
- TGI [51]: 37.4 µM
- TGI [52]: > 100 µM
- TGI [53]: > 100 µM

SMILES: CCCC(=O)N(C(=O)CCC)C1=C(Cl)C(=O)c2ccccc2C1=O
- TGI [2]: 16.4 µM
- TGI [3]: 20.9 µM
- TGI [4]: 15.4 µM
- TGI [5]: 52.5 µM
- TGI [6]: 25.8 µM
- TGI [54]: 37.6 µM
- TGI [7]: 4.75 µM
- TGI [55]: 82.8 µM
- TGI [9]: 40 µM
- TGI [10]: 45.1 µM
- TGI [11]: > 54.1 µM
- TGI [12]: 15.3 µM
- TGI [13]: > 100 µM
- TGI [15]: 13.6 µM
- TGI [56]: 24 µM
- TGI [16]: 25.3 µM
- TGI [17]: 15.8 µM
- TGI [18]: > 23.3 µM
- TGI [19]: 7.1 µM
- TGI [20]: 2.71 µM
- TGI [21]: 11.8 µM
- TGI [57]: 45 µM
- TGI [22]: 11.6 µM
- TGI [23]: 21.4 µM
- TGI [24]: 23.5 µM
- TGI [25]: > 42.5 µM
- TGI [26]: > 23.9 µM
- TGI [28]: > 26.7 µM
- TGI [29]: > 52.8 µM
- TGI [30]: 10.3 µM
- TGI [31]: 14.5 µM
- TGI [32]: 17.8 µM
- TGI [33]: > 33.1 µM
- TGI [34]: > 45.2 µM
- TGI [35]: 33.3 µM
- TGI [36]: 26 µM
- TGI [58]: 29.3 µM
- TGI [37]: > 67.5 µM
- TGI [38]: 30.8 µM
- TGI [39]: 15.5 µM
- TGI [40]: 31.2 µM
- TGI [41]: 23.8 µM
- TGI [42]: 5.79 µM
- TGI [43]: 28.2 µM
- TGI [44]: 10.7 µM
- TGI [45]: 5.01 µM
- TGI [46]: 11.1 µM
- TGI [47]: 34.4 µM
- TGI [48]: 24.4 µM
- TGI [49]: 14.2 µM
- TGI [59]: 79.7 µM
- TGI [51]: 61.3 µM
- TGI [52]: 24.1 µM
- TGI [53]: 14.8 µM
